This test has as its system SP2 luciferase (Luciola sp2 firefly luciferase), wild type, SEQ ID NO: 1. The test is described as follows: Km of SP2 luciferase for D-luciferin and ATP (luminescence kinetics, Michaelis-Menten fit). It counts as biochemical, Luciola sp2 (Malaysian firefly). The following applies: for Km: 0.1 M Tris-HCl pH 8.0, MgSO4 8 mM in injected solution.

Read-outs that look alike come from different tables or passages of the source.

One may read the Km as the substrate concentration at which the rate is half of its maximum.

Procedure: The measurements were carried out ten times for each sample, and the average of absorbency was used for the calculation.
A solution of 0.1 M Tris-HCl (pH 8.0) containing each of the purified luciferase, 4 mM of ATP, and 8 mM of MgSO4 was connected to the standard pump of the luminometer, and the measurements was carried out at the same time as addition of 50 μl of the solution to the well. A Luminescensor (ATTO) was used for the measurements. Measurements were repeated 3 times for each luciferin concentration.
The peak intensity of the obtained photo count value was plotted with respect to luciferin concentration S, defining the initial rate as V. The plots were subjected to curve fitting of Michaelis Menten type, thereby giving Km values. The curve fitting was performed by a nonlinear least-squares method, and the search of the parameter was performed by a Newton method.
Under various ATP concentrations, the luminous intensity of the obtained luciferase was measured. Based on the results, Km values with respect to ATP was determined.
Various 12 types of ATP solutions were prepared by adding ATP to 0.1 M Tris-HCl (pH 8.0). These solutions contain ATP at final concentration of 5, 10, 20, 40, 80, 160, 320, 480, 640, 800, 1280, 1600, or 1920 μM. These ATP solutions were each injected into 96-hole in a microplate at a volume of 50 μl. […] Measurement was repeated 3 times for each ATP concentration.
The peak intensities of the obtained photon count value were plotted with respect to ATP concentration S, with an initial rate V. The plots were subjected to curve fitting of Michaelis Menten type, thereby giving Km value. The curve fitting was performed by a nonlinear least-squares method, and the search of the parameter was performed by a Newton method.

On to `Nc1ncnc2c1ncn2[C@@H]1O[C@H](COP(=O)(O)OP(=O)(O)OP(=O)(O)O)[C@@H](O)[C@H]1O` [ATP], for which the Km (D-luciferin 1 mM, read-out: Km ATP) amounted to 188 µM. Also, the “Km with respect to ATP, compared with known luciferase (FIG. 2)” value (comparison in words) was “higher Km values”.
`O=C(O)[C@H]1CSC(c2nc3ccc(O)cc3s2)=N1` [D-luciferin]: the “Km with respect to D-luciferin, compared with known luciferase (FIG. 2)” value (comparison in words) is listed as “higher Km values”. For the same molecule, where the note is “read-out: Km D-luciferin, ATP 4 mM”, the Km is 4.25 µM.

Source of the values: US9523082B2, “Firefly luciferase” (priority 2014, dated 2016).
